Results as given in PubChem BioAssay (NCI).
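Assay format: 96-well plates, 48-hour exposure. TGI is the concentration that stops growth completely.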

How the values were obtained:
Assay in all cases: inhibition of tumour cell growth, NCI panel, 48 h
[1] = tested on: 786-0 renal
[2] = tested on: HCC-2998 colon
[3] = tested on: T-47D breast
[4] = tested on: OVCAR-3 ovarian
[5] = tested on: TK-10 renal
[6] = tested on: SK-MEL-28 melanoma
[7] = tested on: SNB-19 CNS
[8] = tested on: SR leukemia
[9] = tested on: DU-145 prostate
[10] = tested on: RXF 393 renal
[11] = tested on: OVCAR-5 ovarian
[12] = tested on: OVCAR-4 ovarian
[13] = tested on: NCI-H23 lung
[14] = tested on: MCF7 breast
[15] = tested on: HCT-116 colon
[16] = tested on: UACC-62 melanoma
[17] = tested on: COLO 205 colon
[18] = tested on: K-562 leukemia
[19] = tested on: MOLT-4 leukemia
[20] = tested on: SF-268 CNS
[21] = tested on: MALME-3M melanoma
[22] = tested on: CCRF-CEM leukemia
[23] = tested on: BT-549 breast
[24] = tested on: A498 renal
[25] = tested on: M14 melanoma
[26] = tested on: EKVX NSCLC
[27] = tested on: UO-31 renal
[28] = tested on: NCI/ADR-RES ovarian
[29] = tested on: ACHN renal
[30] = tested on: HOP-62 NSCLC
[31] = tested on: SK-MEL-2 melanoma
[32] = tested on: UACC-257 melanoma
[33] = tested on: MDA-N
[34] = tested on: SF-539 CNS
[35] = tested on: NCI-H522 lung
[36] = tested on: MDA-MB-231 breast
[37] = tested on: NCI-H226 lung
[38] = tested on: OVCAR-8 ovarian
[39] = tested on: SF-295 CNS
[40] = tested on: HCT-15 colon
[41] = tested on: HT29 colon
[42] = tested on: SK-OV-3 ovarian
[43] = tested on: HL-60(TB) leukemia
[44] = tested on: IGROV1 ovarian
[45] = tested on: SW-620 colon
[46] = tested on: SN12C renal
[47] = tested on: CAKI-1 renal
[48] = tested on: HS 578T breast
[49] = tested on: SK-MEL-5 melanoma
[50] = tested on: KM12 colon
[51] = tested on: PC-3 prostate
[52] = tested on: NCI-H460 lung
[53] = tested on: SNB-75 CNS
[54] = tested on: LOX IMVI melanoma
[55] = tested on: A549 NSCLC
[56] = tested on: U251 CNS
[57] = tested on: RPMI-8226 leukemia
[58] = tested on: MDA-MB-435

Measured: TGI

Cc1ccc(C(=O)Nc2ccc(S(=O)(=O)O)c3cc(S(=O)(=O)O)cc(S(=O)(=O)O)c23)cc1N
not listed: [54] | [55] | [56] | [57] | [58]
> 100 µM: all other assays above

CCC1OC(=O)CC(O)C(C)C(OC2OC(C)C(O)C(N(C)C)C2O)C(CC=O)CC(C)C(=O)/C=C/C2(C)OC2C1C (stereo not drawn)
30.5 µM: [46]
80.5 µM: [34]
37.2 µM: [15]
60.2 µM: [22]
41.2 µM: [19] | [45]
90 µM: [53]
27.4 µM: [21]
72.6 µM: [1]
66.2 µM: [36]
39.2 µM: [25]
34.1 µM: [54]
36.3 µM: [17]
53.7 µM: [3]
82.1 µM: [47]
76.1 µM: [48]
44.7 µM: [32]
31.2 µM: [2]
34.6 µM: [57]
18.3 µM: [38]
50.7 µM: [14]
49.8 µM: [16]
37 µM: [41]
73.6 µM: [4]
29.6 µM: [50]
99.6 µM: [23]
91.8 µM: [13]
44.6 µM: [8]
47.6 µM: [44]
79.8 µM: [20]
33 µM: [35]
94.3 µM: [24]
not listed: [10] | [27] | [28]
> 100 µM: all other assays above
